What all share (format): cell-based
In assay [1] the target is T1, progesterone receptor (PRB) (Homo sapiens, UniProt P06401).
T1 construct: expressed in transfected cells; host or cells: COS 7
T1 sequence (P06401 1-933): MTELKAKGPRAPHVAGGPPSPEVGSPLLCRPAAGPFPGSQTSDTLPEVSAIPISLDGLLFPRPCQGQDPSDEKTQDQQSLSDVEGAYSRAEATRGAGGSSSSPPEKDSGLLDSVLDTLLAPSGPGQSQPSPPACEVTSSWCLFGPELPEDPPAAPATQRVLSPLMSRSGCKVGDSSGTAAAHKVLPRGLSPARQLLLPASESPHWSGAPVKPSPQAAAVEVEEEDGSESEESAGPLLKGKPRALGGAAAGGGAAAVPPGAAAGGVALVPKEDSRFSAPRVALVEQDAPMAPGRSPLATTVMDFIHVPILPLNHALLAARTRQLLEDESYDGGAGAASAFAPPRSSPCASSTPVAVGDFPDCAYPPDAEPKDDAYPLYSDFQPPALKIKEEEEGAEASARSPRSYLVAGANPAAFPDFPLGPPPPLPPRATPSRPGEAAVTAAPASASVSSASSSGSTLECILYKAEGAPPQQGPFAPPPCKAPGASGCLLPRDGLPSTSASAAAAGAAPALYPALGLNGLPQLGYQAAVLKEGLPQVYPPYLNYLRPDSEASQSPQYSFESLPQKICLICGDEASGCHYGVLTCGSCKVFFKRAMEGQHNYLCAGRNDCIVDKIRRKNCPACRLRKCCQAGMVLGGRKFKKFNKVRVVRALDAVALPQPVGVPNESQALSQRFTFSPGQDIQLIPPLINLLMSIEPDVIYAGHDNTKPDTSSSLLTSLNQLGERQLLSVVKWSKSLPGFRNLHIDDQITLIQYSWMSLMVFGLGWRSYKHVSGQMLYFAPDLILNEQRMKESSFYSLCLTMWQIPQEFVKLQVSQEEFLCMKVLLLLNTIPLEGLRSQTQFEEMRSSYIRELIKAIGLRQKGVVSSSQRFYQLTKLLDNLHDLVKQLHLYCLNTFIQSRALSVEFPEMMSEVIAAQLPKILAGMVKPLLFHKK
In words: Progestogen activity assay using progesterone receptor transactivation. The settings on record: 100 nM, AH3-luc reporter, COS7. The source says: As the GR LBD has strong homology with the PR LBD there is a chance that any of the tested steroids of FIGS. 1 and 2A that activate one of these receptors may also activate the other. The presence of illegitimate progestogen activity associated with the steroids of FIGS. 1 and 2A was examined using a transactivation assay with the PR instead of the GR.
The PR was artificially expressed in a cell line lacking endogenous PR and a GRE “driving” a luciferase reporter gene was used to measure ligand dependent activation.
COS7 cells were transfected with 1 μg pSEO-PRB and 3 μg AH3-Luc per 10 cm tissue culture dish. The cells were plated out in to 24 well plates after transfection and the steroids of FIGS. 1 and 2A were added immediately to generate a final concentration of 100 nM. After 18 hour incubation the cells were lysed and a luciferase assay was performed.

The target in assay [2] is T2, GR ligand binding domain / SRC-1 (Homo sapiens, UniProt P04150).
T2 construct: expressed in transfected cells
T2 sequence (P04150 524-758 limits assumed): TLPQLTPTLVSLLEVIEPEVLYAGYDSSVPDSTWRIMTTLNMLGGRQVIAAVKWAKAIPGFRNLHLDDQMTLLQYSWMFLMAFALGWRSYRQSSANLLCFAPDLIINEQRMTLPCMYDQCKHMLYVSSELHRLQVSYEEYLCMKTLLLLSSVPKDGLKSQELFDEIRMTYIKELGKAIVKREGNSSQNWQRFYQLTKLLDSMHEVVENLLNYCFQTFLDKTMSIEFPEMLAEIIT
In words: SRC-1 association assay by mammalian two-hybrid analysis. As to conditions: 100 nM. The source says: SRC-1 is an important co-activator of GR action that associates with the GR in a ligand dependant manner. The ability of SRC-1 to associate with the GR in this manner can be used as a measure of potency of ligand mediated transactivation. To perform this assay plasmids that generated VP16-GR ligand binding domain (LBD) and GAL4-SRC-1 fusion proteins and a GAL4 binding luciferase reporter gene construct were transfected into in a cell line lacking GR and deficient in endogenous SRC-1. The GAL4-SRC-1 fusion protein could bind to specific sites upstream of the luciferase reporter gene construct. If the SRC-1 fusion protein associated with the ligand bound VP16-GRLBD fusion protein then the VP-16 activation domain augmented the luciferase gene expression.

For assay [3], the target named is T3, glucocorticoid receptor (Homo sapiens, UniProt P04150).
T3 sequence (P04150 1-777): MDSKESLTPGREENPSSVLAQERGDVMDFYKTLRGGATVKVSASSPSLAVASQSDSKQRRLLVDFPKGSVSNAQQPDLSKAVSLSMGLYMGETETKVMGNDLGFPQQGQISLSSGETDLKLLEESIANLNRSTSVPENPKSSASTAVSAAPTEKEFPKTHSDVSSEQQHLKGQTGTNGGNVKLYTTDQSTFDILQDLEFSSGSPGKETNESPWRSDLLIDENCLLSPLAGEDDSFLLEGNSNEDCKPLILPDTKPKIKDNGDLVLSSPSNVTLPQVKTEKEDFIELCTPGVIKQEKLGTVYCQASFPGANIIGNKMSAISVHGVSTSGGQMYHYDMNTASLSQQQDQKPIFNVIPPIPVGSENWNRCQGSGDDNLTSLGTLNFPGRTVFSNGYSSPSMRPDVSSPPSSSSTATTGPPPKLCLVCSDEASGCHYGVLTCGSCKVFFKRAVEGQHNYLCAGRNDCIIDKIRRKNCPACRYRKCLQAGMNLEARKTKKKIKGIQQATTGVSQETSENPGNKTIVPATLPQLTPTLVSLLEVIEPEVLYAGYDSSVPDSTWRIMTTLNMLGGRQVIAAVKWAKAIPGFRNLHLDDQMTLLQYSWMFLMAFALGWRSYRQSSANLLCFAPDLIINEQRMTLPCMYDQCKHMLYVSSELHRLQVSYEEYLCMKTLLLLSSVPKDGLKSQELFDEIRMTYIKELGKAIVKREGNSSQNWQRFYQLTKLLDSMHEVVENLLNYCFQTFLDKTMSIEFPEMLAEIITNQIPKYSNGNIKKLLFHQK
In words: Transactivation assay using artificially expressed glucocorticoid receptor in the COS 7 monkey kidney cell line (GRE luciferase). As to conditions: 1, 10, 10 and 500 nM; FIG. 5. More on the design: expressed in transfected cells; host or cells: COS 7 (African green monkey kidney, deficient in endogenous GR). On the procedure:
(§1) All transfections were performed using lipofectamine plus (Gibco BRL), according to the manufacturers' instructions, as previously described^1. Briefly, all cells were seeded at 5×10^5 per 10 cm tissue culture plate 18 hours before transfection, the next day the relevant plasmids were mixed with serum free medium and “Plus” reagent (Gibco BRL) and incubated for 15 mins, lipofectamine reagent was added and the mix was incubated for a further 15 mins, this mix was added to the cells on serum free medium in the 10 cm tissue culture plates and left for 3 hours, the cells were then trypsinised and divided into 24 well plates, the cells were left to recover overnight and were treated with steroid for 16 hours before harvest. All experiments were performed from one transfection in triplicate and on separate occasions with similar results.
(§2) The firefly luciferase gene catalyses the production of light from the substrate luciferin. When plasmid constructs containing this gene are transfected into cell lines the activity of the gene can be assessed by the intensity of the luminesence. The luciferase assay yields luminescence through an ATP-dependent oxidation of luciferin the amount of light produced can be measured by a luminometer and is a measure of gene activity (Davis, 1996). Light intensity was measured in a Luminometer (LB 9501, Berthold). The light intensity should be proportional to luciferase concentration in the range of 10^−16M (10 μg/L) to 10^−8M (1 mg/L). To measure the luminescence of the treated cells 150 μl of 1× reporter lysis buffer (RLB: 25 mM Tris phosphate pH7.8, 10 mM MgCl2, 15% Glycerol, 1% Triton, 1 mM EDTA) was added to the 24 well plates to lyse the cells and incubated at room temperature for 30 mins whilst being shaken. Then 100 μl of the room temperature cell extract were mixed with 100 μl of room temperature Luciferase Assay Reagent (LAR: 1 mM ATP, 0.3 mM D-Luciferin, 66% RLB). This reaction was mixed in a luminometer (LB 9501, Berthold) and the light produced was measured for a period of 5 seconds.
In this assay the GR was artificially expressed in a cell line lacking endogenous GR and a glucocorticoid response element (GRE) “driving” a luciferase reporter gene was used to measure ligand dependent activation.
COS7 cells were transfected with 1 μg pcDNA3-GR and 3 μg AH3-Luc per 10 cm tissue culture dish. The cells were plated out in to 24 well plates after transfection and the steroids were added immediately. After 18 hour incubation the cells were lysed and a luciferase assay was performed.

Assay [4] concerns the target T3, glucocorticoid receptor. Description: Transrepression assay using artificially expressed glucocorticoid receptor and P65 in the COS 7 cell line (NRE luciferase). Further details: expressed in transfected cells; host or cells: COS 7 (African green monkey kidney, deficient in endogenous GR). The settings on record: 1, 10 and 100 nM. The procedure: as §1, §2
To perform this assay the GR and p65 were artificially expressed in a cell line lacking GR and deficient in endogenous P65. The ability of P65 to activate an NFkB response element (NRE) “driving” a luciferase reporter gene could then be repressed by GR in a ligand dependent manner and, therefore, used to measure transrepression.
COS7 cells were transfected with 1 μg pcDNA3-GR and 3 μg NRE-Luc and 200 ng p65 per 10 cm tissue culture dish. The cells were plated out in to 24 well plates after transfection and left for 18 hours to recover before the steroids of FIGS. 1 and 2A were added. After another 18 hour incubation the cells were lysed and a luciferase assay was performed.

Assay [5] has as its target T3, glucocorticoid receptor. Description: Type II antagonist activity assay: competition of dexamethasone transactivation. Further details: expressed in transfected cells; host or cells: COS 7 (African green monkey kidney, deficient in endogenous GR). The settings on record: 1, 10, 100 nM; 1 nM dexamethasone. On the procedure: A type II antagonist should be able to compete agonist activity. As an antagonist has no ability to transactivate, competition can be measured by inhibition of an agonist in a transactivation assay.
As with the standard transactivation assay previously described, the GR was artificially expressed in a cell line lacking endogenous GR and a GRE “driving” a luciferase reporter gene was used to measure ligand dependent activation. COS7 cells were transfected with 1 μg pcDNA3-GR and 3 μg AH3-Luc per 10 cm tissue culture dish. The cells were plated out in to 24 well plates after transfection and the steroids were added immediately. […] Certain steroids from FIG. 2A were added at the same concentration to all sample wells. After 18 hour incubation the cells were lysed and a luciferase assay was performed.

Consider `CC1CC2C3CCC4=CC(=O)C=CC4(C)C3(F)C(O)CC2(C)C1(O)C(=O)NCc1ccccc1` (stereo not shown) [Compound K], for which the “PRB reporter gene activation” value in assay [1] is given as “slightly increased reporter gene activation compared to that of dexamethasone”. Besides, in assay [2], the “SRC-1 recruitment at the highest concentration tested” value is reported as “significant response”.

Consider `CNC(=O)C1(O)C(C)CC2C3CCC4=CC(=O)C=CC4(C)C3(F)C(O)CC21C` (stereo not shown) [Compound M], for which the “PRB reporter gene activation” value in assay [1] was “slightly increased reporter gene activation compared to that of dexamethasone”.

Regarding `CC1CC2C3CCC4=CC(=O)C=CC4(C)C3(F)C(O)CC2(C)C1(O)C(=O)COC(=O)Nc1ccccc1` (stereo not shown) [Compound N], the “PRB reporter gene activation” value in assay [1] is given as “slightly increased reporter gene activation compared to that of dexamethasone”.

As for `CC1CC2C3CCC4=CC(=O)C=CC4(C)C3(F)C(O)CC2(C)C1(O)C(=O)COC(=O)Nc1ccc(F)cc1` (stereo not shown) [Compound S], the “PRB reporter gene activation” value in assay [1] is recorded as “slightly increased reporter gene activation compared to that of dexamethasone”. Besides, in assay [2], the “SRC-1 recruitment at the highest concentration tested” value is listed as “significant response”.

Turning to `CCCN(CCC)C(=O)C1(O)C(C)CC2C3CCC4=CC(=O)C=CC4(C)C3(F)C(O)CC21C` (stereo not shown) [P], the “transactivation potential (luminescence) compared to dexamethasone, repeat experiment” value at glucocorticoid receptor [3] was ““right shifted response” and a reduced maximum compared to dexamethasone”. The “repression of P65 stimulation of an NFkB response element compared with dexamethasone” value on glucocorticoid receptor [4] is “no effect at 1 and 10 nM with only a negligible repression at 100 nM”.

With `CC#C[C@]1(O)CC[C@H]2[C@@H]3CCC4=CC(=O)CCC4=C3[C@@H](c3ccc(N(C)C)cc3)C[C@@]21C` [RU486, reference compound], the “maximal repression of transactivation” value at glucocorticoid receptor [5] was approximately 50%.

Take `CC(=O)[C@H]1CC[C@H]2[C@@H]3CCC4=CC(=O)CC[C@]4(C)[C@H]3CC[C@]12C` [progesterone, reference compound]: in assay [1], the “PRB reporter gene activation” value is listed as “strong induction of the reporter gene”.
